What was measured:
rat TAAR1 = rat TAAR1 (Rattus norvegicus (Rat), UniProt Q923Y9); test: Radioligand binding assay on rat TAAR1; details: rat TAAR1, membranes of stably transfected HEK-293 cells; second value of cell mouse/rat
Procedure, shortened: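 Membranes from HEK293 cells stably expressing rat TAAR1, in 20 mM HEPES-NaOH pH 7.4 with 0.1 mM EDTA. Displacement of ^3[H]-(S)-4-[(ethyl-phenyl-amino)-methyl]-4,5-dihydro-oxazol-2-ylamine, nonspecific binding with 10 μM unlabeled ligand; compounds 10 pM to 10 μM in duplicate, 1 hr at 4° C. Filtration, then scintillation counting.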

mouse TAAR1 = mouse TAAR1 (Mus musculus (Mouse), UniProt Q923Y8); test: Radioligand binding assay on mouse TAAR1; details: mouse TAAR1, membranes of stably transfected HEK-293 cells; first value of cell mouse/rat
mouse TAAR1, sequence (Q923Y8 whole entry): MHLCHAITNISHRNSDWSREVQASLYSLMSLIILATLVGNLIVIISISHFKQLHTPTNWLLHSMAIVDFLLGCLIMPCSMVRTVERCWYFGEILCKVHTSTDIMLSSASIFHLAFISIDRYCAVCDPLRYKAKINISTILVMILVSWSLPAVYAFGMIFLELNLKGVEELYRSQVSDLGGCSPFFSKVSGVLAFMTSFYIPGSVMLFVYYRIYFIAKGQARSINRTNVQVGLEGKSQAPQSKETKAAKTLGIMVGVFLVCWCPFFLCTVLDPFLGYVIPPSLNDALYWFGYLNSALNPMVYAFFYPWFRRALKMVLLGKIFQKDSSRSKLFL

rat TAAR1, sequence (Q923Y9 whole entry): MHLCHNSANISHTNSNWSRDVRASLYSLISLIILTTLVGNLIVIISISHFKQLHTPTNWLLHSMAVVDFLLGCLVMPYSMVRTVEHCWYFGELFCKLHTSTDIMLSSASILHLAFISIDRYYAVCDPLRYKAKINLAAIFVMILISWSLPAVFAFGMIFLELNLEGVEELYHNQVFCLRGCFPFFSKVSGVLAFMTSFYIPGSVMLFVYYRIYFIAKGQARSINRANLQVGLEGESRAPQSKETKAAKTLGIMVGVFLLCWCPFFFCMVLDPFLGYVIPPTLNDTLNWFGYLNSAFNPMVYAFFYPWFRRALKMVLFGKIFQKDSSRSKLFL

Structure (SMILES) | Ki (rat TAAR1) [µM] | Ki (mouse TAAR1) [µM]
NC1=N[C@@H](CCc2ccc(NC(c3cccc(F)c3)C(F)(F)F)cc2)CO1 (stereo partly drawn) [Example 66, (4S)-4-(4-(2,2,2-Trifluoro-1-(3-fluorophenyl)ethylamino)phenethyl)-4,5-dihydrooxazol-2-amine] | 0.0064 | 0.023
NC1=N[C@@H](CCc2ccc(Nc3cccc4cccc(Cl)c34)cc2)CO1 [Example 5, (S)-4-(4-(8-Chloronaphthalen-1-ylamino)phenethyl)-4,5-dihydrooxazol-2-amine] | 0.0033 | 0.0262
N#Cc1ccc(Nc2ccc(CC[C@H]3COC(N)=N3)cc2)nc1 [Example 16, 6-{4-[2-((S)-2-Amino-4,5-dihydro-oxazol-4-yl)-ethyl]-phenylamino}-nicotinonitrile] | 0.0004 | 0.0015
COc1ccnc(Nc2ccc(CC[C@H]3COC(N)=N3)cc2)n1 [Example 36, {4-[2-((S)-2-Amino-4,5-dihydro-oxazol-4-yl)-ethyl]-phenyl}-(4-methoxy-pyrimidin-2-yl)-amine] | 0.0004 | 0.0047
CCC(=O)c1cnc(Nc2ccc(CC[C@H]3COC(N)=N3)cc2)nc1 [Example 53, (S)-1-(2-(4-(2-(2-Amino-4,5-dihydrooxazol-4-yl)ethyl)phenylamino)pyrimidin-5-yl)propan-1-one] | 0.0265 | 0.113
Cc1cc(Nc2ccc(CC[C@H]3COC(N)=N3)cc2)c2ncccc2c1 [Example 4, (S)-4-(4-(6-Methylquinolin-8-ylamino)phenethyl)-4,5-dihydrooxazol-2-amine] | 0.0006 | 0.0021
NC1=N[C@@H](CCc2ccc(Nc3cc(Cl)ncn3)cc2)CO1 [Example 32, {4-[2-((S)-2-Amino-4,5-dihydro-oxazol-4-yl)-ethyl]-phenyl}-(6-chloro-pyrimidin-4-yl)-amine] | 0.0008 | 0.0019
CSc1ccnc(Nc2ccc(CC[C@H]3COC(N)=N3)cc2)n1 [Example 45, {4-[2-((S)-2-Amino-4,5-dihydro-oxazol-4-yl)-ethyl]-phenyl}-(4-methylsulfanyl-pyrimidin-2-yl)-amine] | 0.0013 | 0.0077

From patent US8673950B2, “Dihydrooxazol-2-amine derivatives” (Hoffmann-LaRoche Inc., priority 2010, dated 2014)
